Row | Structure (SMILES) | melting point
1 | CCCCc1nc2ccc(C(=O)N(C)Cc3ccccn3)cc2n1Cc1ccccc1F [Example 40, 2-n-Butyl-1-(2-Fluorobenzyl)-6-[N-Methyl-N-(2-Pyridylmethyl)Carbamoyl]Benzimidazole] | 97 to 100 °C
2 | Cc1ccc(C)c(S(=O)(=O)NC(=O)c2ccc3nc(C)n(Cc4ccccc4Cl)c3c2)c1 [Example 164, 1-(2-Chlorobenzyl)-6-(2,5-Dimethylbenzenesulfonylcarbamoyl)-2-Methylbenzimidazole] | 266.5 to 267.5 °C
3 | Cc1nc2ccc(C(=O)NS(=O)(=O)c3ccccc3Cl)cc2n1Cc1ccccc1Cl.N [Example 167, 6-(2-Chlorobenzenesulfonylcarbamoyl)-1-(2-Chlorobenzyl)-2-Methylbenzimidazole Ammonium Salt] | 264 to 267 °C
4 | O=C(Nc1ccccn1)c1ccc2nc(C3CC3)n(Cc3ccccc3Cl)c2c1 [Example 28, 1-(2-Chlorobenzyl)-2-Cyclopropyl-6-(2-Pyridylcarbamoyl)Benzimidazole] | 206 to 209 °C
5 | Nc1nc2ccc(C(=O)NS(=O)(=O)c3ccccc3)cc2n1Cc1ccc(-c2ccccc2)cc1 [Example 172, 2-Amino-6-Benzenesulfonylcarbamoyl-1-(Biphenyl-4-ylmethyl)Benzimidazole] | 352.5 to 355 °C
6 | CCCCS(=O)(=O)NC(=O)c1ccc2nc(C)n(Cc3ccc(C(=O)c4ccccc4)cc3)c2c1 [Example 300, 1-[(4-Benzoyl)benzyl]-6-(1-Butanesulfonylcarbamoyl)-2-Methylbenzimidazole] | 111 to 112.4 °C
7 | Cc1nc2ccc(C=CC(=O)NS(=O)(=O)c3ccccc3)cc2n1Cc1ccccc1Cl [Example 126, N-Benzenesulfonyl-3-[1-(2-Chlorobenzyl)-2-Methylbenzimidazole-6-yl]Acrylamide] | 243.1 to 244.3 °C
8 | Cc1nc2ccc(CCC(=O)NS(=O)(=O)c3ccccc3)cc2n1Cc1ccccc1Cl [Example 200, N-Benzenesulfonyl-3-[1-(2-chlorobenzyl)-2-methylbenzimidazole-6-yl]propionamide] | 229.8 to 233 °C
9 | CCCc1nc2ccc(C(=O)N(C)c3ccccn3)cc2n1Cc1ccccc1Cl [Example 37, 1-(2-Chlorobenzyl)-6-[N-Methyl-N-(2-Pyridyl)carbamoyl]-2-n-Propylbenzimidazole] | 143 to 146 °C
10 | Cc1nc2ccc(C(=O)NS(=O)(=O)c3ccccc3)cc2n1Cc1ccccc1Cl [Example 111, 6-Benzenesulfonylcarbamoyl-1-(2-Chlorobenzyl)-2-Methylbenzimidazole] | 273.5 to 274.3 °C
11 | Cc1nc2ccc(C(=O)NS(=O)(=O)c3ccc(C(F)(F)F)cc3)cc2n1Cc1ccccc1Cl [Example 166, 1-(2-Chlorobenzyl)-2-Methyl-6-[4(Trifluoromethyl)Benzenesulfonylcarbamoyl]Benzimidazole] | 288 to 292 °C
12 | Cc1nc2ccc(C(=O)NS(=O)(=O)c3ccc([N+](=O)[O-])cc3)cc2n1Cc1ccccc1Cl [Example 165, 1-(2-Chlorobenzyl)-2-Methyl-6-(4-Nitrobenzenesulfonylcarbamoyl)Benzimidazole] | 330 to 332 °C

Other lines, results leading:

Row | melting point | Structure (SMILES)
13 | 254.5 to 257.5 °C (dec.) | Cc1nc2ccc(C(=O)NS(=O)(=O)c3cccc(Cl)c3)cc2n1Cc1ccccc1Cl [Example 156, 6-(3-Chlorobenzenesulfonylcarbamoyl)-1-(2-Chlorobenzyl)-2-Methylbenzimidazole]
14 | 332 to 335 °C (dec.) | Cc1nc2ccc(C(=O)NS(=O)(=O)C(F)(F)F)cc2n1Cc1ccccc1Cl.Cl
15 | 224 to 229 °C | O=C(O)c1ccc2nc(C3CC3)n(Cc3ccccc3F)c2c1 [Example 18, 6-Carboxy-2-Cyclopropyl-1-(2-Fluorobenzyl)Benzimidazole]
16 | 193 to 196 °C | Cc1nc2ccc(C(=O)NS(=O)(=O)Cc3ccccc3)cc2n1Cc1ccccc1Cl [Example 163, 1-(2-Chlorobenzyl)-2-Methyl-6-(α-Toluenesulfonylcarbamoyl)Benzimidazole]
17 | 271 to 274 °C | COc1ccc(S(=O)(=O)NC(=O)c2ccc3nc(C)n(Cc4ccccc4Cl)c3c2)cc1 [Example 162, 1-(2-Chlorobenzyl)-6-(4-Methoxybenzenesulfonylcarbamoyl)-2-Methylbenzimidazole]

— patent publication US20020082280A1, “Method of inhibiting neoplastic cells with benzimidazole derivatives” (priority 1998, published 2002)
